Calls of active or inactive are those of the source. The rule behind the calls is not given here.
Key:
[1] = system: T-24; assay: Induction of apoptosis in human T24 cells assessed as necrotic cells at 10 uM incubated for 24 hrs by Annexin-V/PI staining based flow cytometry analysis (reference value: 1.92 %); assay type: functional
[2] = system: T-24; assay: Induction of apoptosis in human T24 cells assessed as contracted small fragmented nuclei at 10 uM by Hoechst33258 staining based fluorescence microscopy; assay type: functional, cell-based
[3] = system: T-24; assay: Induction of mitochondrial membrane potential dysfunction in human T24 cells assessed as increase in fragmentation at 10 uM incubated for 24 hrs by TEM analysis; assay type: functional, cell-based
[4] = system: T-24; assay: Induction of DNA damage in human T24 cells assessed as increase in […] p53 expression at 10 to 15 uM incubated for 24 hrs by Western blot analysis; assay type: functional, cell-based; conditions: dose 10-15 µM
[5] = system: T-24; assay: Induction of cell cycle arrest in human T24 cells assessed as accumulation of cells at G1 phase at 10 uM incubated for 24 hrs by propidium iodide/RNase A staining based flow cytometry analysis (reference value: 51.71 %); assay type: functional
[6] = system: T-24; assay: Inhibition of colony formation in human T24 cells upto 5 uM incubated for 24 hrs and measured for 10 days; assay type: functional; conditions: up to 5 µM
[7] = system: T-24; assay: Induction of cell cycle arrest in human T24 cells assessed as accumulation of cells at G2/M phase at 15 uM incubated for 24 hrs by propidium iodide/RNase A staining based flow cytometry analysis (reference value: 5.82 %); assay type: functional
[8] = system: T-24; assay: Induction of mitochondrial ROS generation in human T24 cells at 10 uM measured after 24 hrs by Mitotracker Red dye based confocal microscopy method; assay type: functional, cell-based
[9] = system: T-24; assay: Induction of mitochondrial membrane potential dysfunction in human T24 cells assessed as nuclear condensation at 10 to 15 uM by mito-tracker green dye based fluorescence microscopy; assay type: functional, cell-based; conditions: dose 10-15 µM
[10] = system: T-24; assay: Induction of cell cycle arrest in human T24 cells assessed as accumulation of cells at G2/M phase at 10 uM incubated for 24 hrs by propidium iodide/RNase A staining based flow cytometry analysis (reference value: 5.82 %); assay type: functional
[11] = system: T-24; assay: Induction of apoptosis in human T24 cells assessed as increase in caspase 3 activity at 15 uM (Rvb= 3.1%); assay type: functional
[12] = system: T-24; assay: Induction of apoptosis in human T24 cells assessed as viable cells at 15 uM incubated for 24 hrs by Annexin-V/PI staining based flow cytometry analysis (reference value: 94.3 %); assay type: functional; conditions: read-out: Activity
[13] = system: T-24; assay: Induction of mitochondrial membrane potential dysfunction in human T24 cells assessed as change in morphology at 10 to 15 uM by Mitotracker green dye based fluorescence microscopy; assay type: functional, cell-based; conditions: dose 10-15 µM
[14] = system: T-24; assay: Induction of apoptosis in human T24 cells assessed as late apoptotic cells at 0.5 uM incubated for 24 hrs by Annexin-V/PI staining based flow cytometry analysis (reference value: 0.543 %); assay type: functional
[15] = system: T-24; assay: Induction of Ca2+ production in human T24 cells assessed as increase in intracellular Ca2+ concentration at 0.5 uM by Fluo3-AM staining based fluorescence microscopic method; assay type: functional, cell-based
[16] = system: T-24; assay: Induction of mitochondrial mediated apoptosis in human T24 cells assessed as upregulation of cytochrome c expression at 0.5 to 1 uM incubated for 24 hrs by Western blotting analysis; assay type: functional, cell-based; conditions: dose 0.5-1 µM
[17] = system: T-24; assay: Induction of apoptosis in human T24 cells assessed as late apoptotic cells at 1 uM incubated for 24 hrs by Annexin-V/PI staining based flow cytometry analysis (reference value: 0.543 %); assay type: functional
[18] = system: T-24; assay: Induction of mitochondrial mediated apoptosis in human T24 cells assessed as upregulation of apaf-1 expression at 0.5 to 1 uM incubated for 24 hrs by Western blotting analysis; assay type: functional, cell-based; conditions: dose 0.5-1 µM
[19] = system: T-24; assay: Induction of mitochondrial ROS generation in human T24 cells at 0.5 uM measured after 24 hrs by Mitotracker Red dye based confocal microscopy method; assay type: functional, cell-based
[20] = system: T-24; assay: Induction of ROS generation in human T24 cells at 0.5 uM by fluorescence microscopy; assay type: functional, cell-based
[21] = system: T-24; assay: Cytotoxicity against human T24 cells assessed as decrease in cell viability at 0.5 uM by MTT assay; assay type: functional, cell-based; conditions: TDE = time-dependent effect
[22] = system: T-24; assay: Induction of apoptosis in human T24 cells assessed as increase in caspase 3 activity at 0.5 uM (Rvb= 3.1%); assay type: functional
[23] = system: T-24; assay: Induction of DNA damage in human T24 cells assessed as increase in […] p53 expression at 0.5 to 1 uM incubated for 24 hrs by Western blot analysis; assay type: functional, cell-based; conditions: dose 0.5-1 µM
[24] = system: T-24; assay: Induction of apoptosis in human T24 cells assessed as condensation of nuclei at 0.5 uM by Hoechst33258 staining based fluorescence microscopy; assay type: functional, cell-based
[25] = system: T-24; assay: Induction of mitochondrial membrane potential dysfunction in human T24 cells assessed as mitochondrial fragment condensation at 0.5 to 1 uM by mito-tracker green dye based fluorescence microscopy; assay type: functional, cell-based; conditions: dose 0.5-1 µM
[26] = system: T-24; assay: Induction of apoptosis in human T24 cells assessed as viable cells at 0.5 uM incubated for 24 hrs by Annexin-V/PI staining based flow cytometry analysis (reference value: 94.3 %); assay type: functional; conditions: read-out: Activity
[27] = system: T-24; assay: Induction of apoptosis in human T24 cells assessed as early apoptotic cells at 4 uM incubated for 24 hrs by Annexin-V/PI staining based flow cytometry analysis (reference value: 3.27 %); assay type: functional
[28] = system: T-24; assay: Induction of apoptosis in human T24 cells assessed as condensed chromatin at 2 uM by Hoechst33258 staining based fluorescence microscopy; assay type: functional, cell-based
[29] = system: T-24; assay: Induction of mitochondrial membrane potential dysfunction in human T24 cells assessed as nuclear condensation at 2 to 4 uM by mito-tracker green dye based fluorescence microscopy; assay type: functional, cell-based; conditions: dose 2-4 µM
[30] = system: T-24; assay: Induction of mitochondrial membrane potential dysfunction in human T24 cells assessed as increase in fragmentation at 2 uM incubated for 24 hrs by TEM analysis; assay type: functional, cell-based
[31] = system: T-24; assay: Induction of mitochondrial mediated apoptosis in human T24 cells assessed as decrease in Bcl-2 protein expression at 2 to 4 uM incubated for 24 hrs by Western blotting analysis; assay type: functional, cell-based; conditions: dose 2-4 µM
[32] = system: T-24; assay: Induction of mitochondrial membrane potential dysfunction in human T24 cells assessed as decrease in ATP production at 4 uM; assay type: functional; design: scale not given: the % may be the effect or the level left
[33] = system: T-24; assay: Induction of mitochondrial membrane potential dysfunction in human T24 cells assessed as mitochondrial fragment condensation at 2 to 4 uM by mito-tracker green dye based fluorescence microscopy; assay type: functional, cell-based; conditions: dose 2-4 µM
[34] = system: T-24; assay: Induction of mitochondrial membrane potential dysfunction in human T24 cells assessed as disappearance of cristae at 2 uM incubated for 24 hrs by TEM analysis; assay type: functional, cell-based
[35] = system: T-24; assay: Induction of mitochondrial Ca2+ production in human T24 cells assessed as increase in intracellular Ca2+ concentration at 2 uM by Rhod2-AM staining based fluorescence microscopic method; assay type: functional, cell-based
[36] = system: T-24; assay: Induction of cell cycle arrest in human T24 cells assessed as accumulation of cells at G2/M phase at 4 uM incubated for 24 hrs by propidium iodide/RNase A staining based flow cytometry analysis (reference value: 5.82 %); assay type: functional
[37] = system: T-24; assay: Induction of cell cycle arrest in human T24 cells assessed as accumulation of cells at S phase at 4 uM incubated for 24 hrs by propidium iodide/RNase A staining based flow cytometry analysis (reference value: 42.47 %); assay type: functional

**Q.** Which Activity [1] does the source give for `O=C1c2ccccc2-c2cccc3ccnc1c23` here?
**A.** The Activity was 3.31%.

**Q.** What about the Activity [2] of the same molecule?
**A.** Its Activity is “Active”.

**Q.** What about the Activity [3] of the same molecule?
**A.** The Activity was “Active”.

**Q.** What about the Activity [4] of the same molecule?
**A.** Its Activity is “Active”.

**Q.** And the Activity [5]?
**A.** Its Activity is 31.45%.

**Q.** What about the “inhibition (INH)” value [6] of the same molecule?
**A.** Its value is 100%.

**Q.** What about the Activity [7] of the same molecule?
**A.** The Activity was 22.69%.

**Q.** What about the Activity [8] of the same molecule?
**A.** Its Activity is “Active”.

**Q.** And the Activity [9]?
**A.** The Activity was “Active”.

**Q.** What about the Activity [10] of the same molecule?
**A.** Its Activity is 13.69%.

**Q.** What about the Activity [11] of the same molecule?
**A.** Its Activity is 25.5%.

**Q.** What about the viability at 15 µM [12] of the same molecule?
**A.** The viability at 15 µM was 58%.

**Q.** And the Activity [13]?
**A.** The Activity was “Active”.

**Q.** Which Activity [14] does the source give for `O=C1c2ccccc2-c2ccc([N+](=O)[O-])c3ccnc1c23` here?
**A.** Its Activity is 5.1%.

**Q.** And the Activity [15]?
**A.** Its Activity is “Active”.

**Q.** And the Activity [16]?
**A.** Its Activity is “Active”.

**Q.** And the Activity [17]?
**A.** Its Activity is 6.25%.

**Q.** And the Activity [18]?
**A.** The Activity was “Active”.

**Q.** What about the Activity [19] of the same molecule?
**A.** Its Activity is “Active”.

**Q.** What about the Activity [20] of the same molecule?
**A.** The Activity was “Active”.

**Q.** And the Activity [21]?
**A.** The Activity was “Tde”.

**Q.** And the Activity [22]?
**A.** Its Activity is 30.6%.

**Q.** And the Activity [23]?
**A.** The Activity was “Active”.

**Q.** What about the Activity [24] of the same molecule?
**A.** The Activity was “Active”.

**Q.** And the Activity [25]?
**A.** Its Activity is “Active”.

**Q.** What about the viability at 0.5 µM [26] of the same molecule?
**A.** Its viability at 0.5 µM is 58.1%.

**Q.** For `O=C1c2cc([N+](=O)[O-])ccc2-c2ccc([N+](=O)[O-])c3ccnc1c23`, which Activity [27] is on record?
**A.** Its Activity is 32.3%.

**Q.** What about the Activity [28] of the same molecule?
**A.** Its Activity is “Active”.

**Q.** And the Activity [29]?
**A.** The Activity was “Active”.

**Q.** And the Activity [30]?
**A.** The Activity was “Active”.

**Q.** What about the Activity [31] of the same molecule?
**A.** The Activity was “Active”.

**Q.** What about the Activity [32] of the same molecule?
**A.** The Activity was 43.1%.

**Q.** What about the Activity [33] of the same molecule?
**A.** The Activity was “Active”.

**Q.** What about the Activity [34] of the same molecule?
**A.** Its Activity is “Active”.

**Q.** What about the Activity [35] of the same molecule?
**A.** The Activity was “Active”.

**Q.** What about the Activity [36] of the same molecule?
**A.** The Activity was 14.18%.

**Q.** And the Activity [37]?
**A.** Its Activity is 70.53%.

Reference: ChEMBL document CHEMBL5131473, “One-pot synthesis of oxoaporphines as potent antitumor agents and investigation of their mechanisms of actions” (Eur J Med Chem, 2022)
